Reference: US10369145B2, “Coumarin derivatives and methods of use in treating hyperproliferative diseases” (DISCOVERYBIOMED, INC., priority 2013, dated 2019)
Read-outs that look alike come from different tables or passages of the source.

What was measured:
KM12 = assay: NCI 60 panel: KM12 (Colon Cancer); assay type: cell-based
CAKI-1 [1] = assay: NCI 60 panel: CAKI-1 (Renal Cancer); assay type: cell-based
MDA-MB-435 = assay: NCI 60 panel: MDA-MB-435 (Melanoma); assay type: cell-based
RXF 393 = assay: NCI 60 panel: RXF 393 (Renal Cancer); assay type: cell-based
SF-268 = assay: NCI 60 panel: SF-268 (CNS Cancer); assay type: cell-based
RPMI-8826 = assay: Complementary DBM in vitro profiling: RPMI-8826 (Hematologic Cancer); assay type: cell-based
Procedure: (§1) The compounds described herein are effective for inhibiting cellular proliferation in hyperproliferative cell types. To study the effects of these compounds, an assay was developed to differentiate the effects of the compounds on proliferating versus confluent cells. The assay design generates a proliferating density 24 hours after seeding and provides a 3-day active cell growth/doubling window in which to gauge the anti-proliferative effect of the compounds described herein. […] In this 3-day growth window, cell number increases with daily doublings across the 72-hour period (see FIG. 1).
(§2) In each assay design, compounds were added at the 24-hour timepoint after cell seeding. The effect of the compounds, relative to vehicle control and to VelCade (a proteasome inhibitor approved in the U.S. for treating relapsed multiple myeloma and mantle cell lymphoma) as a positive control, was assessed across the 3-day growth window for proliferating cells and on an already near confluent culture of cells for the same time period. Normal cells were handled in the same manner, with some adjustment of seeding density needed in select cases. […]
(§3) Cell number at the end of the assay was determined using the CELLTITER-GLO Luminescent Cell Viability Assay (Promega; Madison, Wis.). The CELLTITER-GLO Luminescent Cell Viability Assay is a homogeneous method of determining the number of viable cells in culture based on quantitation of the ATP present, an indicator of metabolically active cells. IC50 values were calculated. […]
(§4) For a typical screening experiment to identify the compounds, cells were seeded into 96- or 384-well microtiter plates at plating densities pre-determined for each cell line to ensure drug exposure occurs during the proliferative phase well before confluency is reached. […] Values were calculated for each of these three parameters if the level of activity was reached; however, if the effect was not reached or was exceeded, the value for that parameter was expressed as greater or less than the maximum or minimum concentration tested.

OVCAR-4 = assay: NCI 60 panel: OVCAR-4 (Ovarian Cancer); assay type: cell-based
A549 = assay: NCI 60 panel: A549 (Non-Small Cell Lung Cancer); assay type: cell-based
SNB-75 = assay: NCI 60 panel: SNB-75 (CNS Cancer); assay type: cell-based
HCC-2998 = assay: NCI 60 panel: HCC-2998 (Colon Cancer); assay type: cell-based
MDA-MB-468 = assay: NCI 60 panel: MDA-MB-468 (Breast Cancer); assay type: cell-based
OVCAR-5 = assay: NCI 60 panel: OVCAR-5 (Ovarian Cancer); assay type: cell-based
DU-145 = assay: NCI 60 panel: DU-145 (Prostate Cancer); assay type: cell-based
CAKI-1 [2] = assay: Complementary DBM in vitro profiling: CAKI-1 (Renal Cancer); assay type: cell-based
Procedure: as §1, §2, §3, §4

SN12C = assay: NCI 60 panel: SN12C (Renal Cancer); assay type: cell-based
U251MG = assay: Complementary DBM in vitro profiling: U251MG (CNS Cancer); assay type: cell-based
Procedure: as §1, §2, §3, §4

SNB-19 = assay: NCI 60 panel: SNB-19 (CNS Cancer); assay type: cell-based
SK-MEL-28 = assay: NCI 60 panel: SK-MEL-28 (Melanoma); assay type: cell-based
SK-MEL-5 = assay: NCI 60 panel: SK-MEL-5 (Melanoma); assay type: cell-based
OVCAR-3 = tested on: OVCAR-3
Source text: (§5) TGI means the drug concentration resulting in total growth inhibition or “cytostasis.” LC50 is the concentration of drug resulting in a 50% reduction in the measured cytosolic ATP at the end of the drug treatment as compared to that at the beginning, indicating a net loss of cells following treatment (cytotoxicity).
(§6) A major limitation with the anti-mitotic drugs in particular and in conventional chemotherapeutics in general, is their susceptibility to cellular mechanisms of adaptive/intrinsic multi-drug resistance (i.e., MDR efflux pumps such as p-glycoprotein, MRP1).

SK-OV-3 = tested on: SK-OV-3
Source text: as §5, §6

NCI/ADR-RES = tested on: NCI/ADR-RES
Source text: as §5, §6

[3] = read-out: LC50 (the source's name)

SMILES: COc1ccccc1Nc1nc(-c2cc3cccc(N)c3oc2=O)cs1 [Compound DBM 228]
- GI50 (KM12): 70.5 nM
- TGI (KM12): 13.4 µM
- CC50 (KM12; [3]): > 100 µM
- GI50 (CAKI-1 [1]): 115 nM
- TGI (CAKI-1 [1]): 27.9 µM
- CC50 (CAKI-1 [1]; [3]): > 100 µM
- GI50 (MDA-MB-435): 23.1 nM
- TGI (MDA-MB-435): 67.9 nM
- CC50 (MDA-MB-435; [3]): 69.5 µM
- GI50 (RXF 393): 218 nM
- TGI (RXF 393): 15.2 µM
- CC50 (RXF 393; [3]): 52.6 µM
- GI50 (SF-268): 770 nM
- TGI (SF-268): 55.3 µM
- CC50 (SF-268; [3]): > 100 µM
- GI50 (RPMI-8826): 271 nM
- TGI (RPMI-8826): 312 nM
- CC50 (RPMI-8826; [3]): > 30 µM
- GI50 (OVCAR-4): 1350 nM
- TGI (OVCAR-4): 25 µM
- CC50 (OVCAR-4; [3]): > 100 µM
- GI50 (A549): 97 nM
- TGI (A549): 22.6 µM
- CC50 (A549; [3]): > 100 µM
- GI50 (SNB-75): 48.1 nM
- CC50 (SNB-75; [3]): > 100 µM
- GI50 (HCC-2998): 1050 nM
- TGI (HCC-2998): 16.5 µM
- CC50 (HCC-2998; [3]): > 100 µM
- GI50 (MDA-MB-468): 47.1 nM
- TGI (MDA-MB-468): 800 nM
- CC50 (MDA-MB-468; [3]): 60.9 µM
- GI50 (OVCAR-5): 592 nM
- TGI (OVCAR-5): 15.7 µM
- CC50 (OVCAR-5; [3]): 51.9 µM
- GI50 (DU-145): 356 nM
- TGI (DU-145): 5.31 µM
- CC50 (DU-145; [3]): 41 µM
- GI50 (CAKI-1 [2]): 142 nM
- TGI (CAKI-1 [2]): 1.92 µM
- CC50 (CAKI-1 [2]; [3]): 5.21 µM
- GI50 (SN12C): 526 nM
- TGI (SN12C): >100 µM
- CC50 (SN12C; [3]): > 100 µM
- GI50 (U251MG): 197 nM
- TGI (U251MG): >30 µM
- CC50 (U251MG; [3]): > 30 µM
- GI50 (SNB-19): 182 nM
- TGI (SNB-19): 35 µM
- CC50 (SNB-19; [3]): > 100 µM
- GI50 (SK-MEL-28): 88.9 nM
- TGI (SK-MEL-28): 31 µM
- CC50 (SK-MEL-28; [3]): 99.3 µM
- GI50 (SK-MEL-5): 76.8 nM
- TGI (SK-MEL-5): 2.3 µM
- CC50 (SK-MEL-5; [3]): 26.8 µM
- CC50 (OVCAR-3): 24.2 µM
- GI50 (OVCAR-3; OVCAR-3): 45.6 nM
- TGI (OVCAR-3; OVCAR-3): 322 nM
- GI50 (OVCAR-3; OVCAR-3, as stated in text): 50 nM
- CC50 (SK-OV-3): > 100 µM
- GI50 (SK-OV-3; SK-OV-3): 410 nM
- TGI (SK-OV-3; SK-OV-3): 22 µM
- GI50 (SK-OV-3; SK-OV-3, as stated in text): 330 nM
- CC50 (NCI/ADR-RES): > 100 µM
- potency in multi-drug resistant line, in words (FIG. 9) (NCI/ADR-RES; NCI-ADR/RES versus drug-responsive cells): remained potent
- GI50 (NCI/ADR-RES; NCI/ADR-RES): 45.9 nM
- TGI (NCI/ADR-RES; NCI/ADR-RES): 327 nM
- IC50 (NCI/ADR-RES; read-out: potency in the NCI-ADR/RES cell line, multi-drug resistant NCI-ADR/RES): 44.5 nM
